From PMC3210175, “8-Modified-2′-Deoxyadenosine Analogues Induce Delayed Polymerization Arrest during HIV-1 Reverse Transcription” (PLoS ONE, 2011)
Entries after “also recorded” stand apart in the source; their conditions may differ. Where two headings read alike, the source gives them in different places.

Columns and labels:
[1] = Cytotoxicity on uninfected cells, MTT assay; assay type: cell-based; settings: human, uninfected CEM-SS cells, mean ± SD, four independent experiments
Description: (§1) We thus addressed the antiviral activity of our nucleoside analogues in cell culture. All the synthesized nucleoside analogues (2a–g, 3, 7, 8 and 9) were tested for their ability to reduce HIV-1 LAI in CEM-SS cells. Viral replication was monitored by measuring the RT activity in the cell culture supernatants, while compound's cytotoxicity on uninfected cells was assessed using an MTT assay.
(§2) The activity of the nucleoside analogues 2a–g, 3, 7, 8 and 9 on HIV-1 replication was determined by measuring the RT activity associated with virus particles released from CEM-SS cells infected with HIV-1 Lai. The 50% cytotoxic concentration (CC50) was evaluated in parallel to the 50% inhibitory concentration (IC50)[37].

[2] = system: HIV-1 LAI in CEM-SS cells; experiment: HIV-1 inhibition in cell culture (RT activity in cell culture supernatants); assay type: cell-based; settings: mean ± SD, four independent experiments
Description: as §1, §2

HIV-1 RT [3] = molecular target: T1, HIV-1 RT (Human immunodeficiency virus type 1 group M subtype B, UniProt P04585, E1065Q); experiment: (+) strand DNA synthesis assay (DCT in 31-mer DNA template, 18-mer DNA primer); assay type: biochemical; settings: analogue in 31-mer DNA template; RT 10 or 30 nM
T1 construct: helix αH in the thumb domain of the p66 subunit of HIV-1 RT; made in house
Source text: (§3) Viral RNA, comprising the first 311 nucleotides of the HIV-1 genomic RNA (Mal isolate) was in vitro transcribed and purified as previously described. 18-, 19 and 31-mer DNA oligodeoxynucleotides containing the modified 2′-dA analogues respectively at 3′ end, at the penultimate position of 3′ end and at a distance of 12 nucleotides from their 5′ end were chemically synthesized and purified as described above (Figure 5). Unmodified and modified 18- and 19-mer primers were labelled at their 5′ end with [γ-^32]ATP using phage T4 polynucleotide kinase and purified on 8% denaturing polyacrylamide gels. RNase H (−) reverse transcriptase bearing the E478Q mutation that abolishes RNase H activity (RT^EQ) was expressed and purified according to a method adapted from.
(§4) Primer/template (P/T) complexes, at a final concentration of 300 nM, were formed by incubating the primer with a 3 fold excess of either 1–311 viral RNA or modified 31-mer DNA oligonucleotide in water for 2 min at 90°C, cooling on ice for 2 min and incubating for 20 min at 50°C in 100 mM NaCl.
Thirty one-mer DNA templates, containing or not a modified 2′-deoxyadenosine were hybridized to an 18-mer DNA primer (Figure 5) and subsequent DNA synthesis and analysis of the reaction products were performed as described above.

HIV-1 RT [4] = molecular target: T1, HIV-1 RT; experiment: (−) strand "n+6" DNA synthesis assay (ddATP instead of dATP; DCT-modified 18- or 19-mer primer on 1–311 HIV-1 MAL RNA template); assay type: biochemical; settings: for Inhibition of (−) strand DNA synthesis (DCT in the primer), DCT at 3′-end 18 mer: "n+6" DNA synthesis assay, analogue incorporated at 3′ end of 18-mer DNA primer; for Delayed chain termination (accumulation of n+3 products): DCT at penultimate position of 19-mer primer, both 10 and 30 nM RT
Source text: as §3, §4
Ten nM P/T (with the 311 vRNA as template) were pre-incubated with 10 or 30 nM of RT at 37°C for 4 min. Reactions were initiated by the addition of 50 µM of each of the four dNTPs and stopped at various times with equal amounts of buffer containing formamide. The same procedure was used for synthesis of “+6” DNA except that ddATP was substituted for dATP. Reaction products were denatured for 2 min at 90°C prior to separation on an 8% polyacrylamide denaturing gel and quantified using a Fuji FLA-5100 analyser and the Image Gauge program.

CEM-SS cells = experiment: Cytotoxicity on uninfected cells, MTT assay; assay type: cell-based; settings: mean ± SD, four independent experiments
Description: as §1, §2

HIV-1 RT [5] = molecular target: T1, HIV-1 RT; experiment: (−) strand strong-stop DNA synthesis assay (DCT-modified 19-mer DNA primer on 1–311 HIV-1 MAL RNA template); assay type: biochemical; settings: 10 nM RT, full-length product
Source text: as §3, §4
Ten nM P/T (with the 311 vRNA as template) were pre-incubated with 10 or 30 nM of RT at 37°C for 4 min. […] Reaction products were denatured for 2 min at 90°C prior to separation on an 8% polyacrylamide denaturing gel and quantified using a Fuji FLA-5100 analyser and the Image Gauge program.

HIV-1 RT [6] = molecular target: T1, HIV-1 RT; experiment: DNA-directed DNA synthesis with modified 19-mer primer on 41-mer DNA template (Figure S2); assay type: biochemical; settings: 8-MeS-dAMP at penultimate position of 19-mer primer, 10 or 90 nM RT
Source text: Supplementary file pone.0027456.s002.docx: Figure S2 Comparative effect of 8-MeS-dA on (−) and (+) strand DNA synthesis. A. Templates and primers used for the study. The template is either 1–311 HIV-1 MAL RNA, for which part of the sequence is shown, or a 41-mer DNA oligonucleotide. The primer is a 19- mer DNA strictly complementary to the central part of the template. X corresponds to either dAMP or 8-MeS-dAMP inserted at the penultimate position of the primer. “n” corresponds to the position of the modified nucleotide. B. Time course of in vitro DNA synthesis using 10 nM of primer/template complexes preincubated with either 10 or 90 nM of HIV-1 RT. Polymerization was initiated by the addition of 20 µM of dTTP, dGTP and dCTP as well as 50 µM of ddATP for the RNA-directed synthesis or 20 µM of dATP, dTTP, dCTP and 50 µM of ddGTP for the DNA directed synthesis. Reactions were stopped after 15, 60 and 120 min. (+6) and (+7) refer to the 6th and 7th nucleotides to be added with respect to the position of the modified nucleotide analogue. (DOCX) Click here for additional data file.

[7] = Human immunodeficiency virus 1, CEM-SS, read-out: EC50

## CN(C)c1nc2c(N)ncnc2n1[C@H]1C[C@H](O)[C@@H](CO)O1 [2a, 8-Dimethylamino-2'-deoxyadenosine]
[1]
  CC50: > 100 µM
[2]; [7]
  EC50: > 100 µM

## CCN(C)c1nc2c(N)ncnc2n1[C@H]1C[C@H](O)[C@@H](CO)O1 [2b, 8-Ethylmethylamino-2'-deoxyadenosine]
HIV-1 RT [3]
  Effect on primer extension pattern / enzyme pausing in (+) strand DNA synthesis: enzyme pausing is obvious at positions n+1 and mainly n+2
[1]
  CC50: > 100 µM
HIV-1 RT [4]; 10 nM RT
  Inhibition of (−) strand DNA synthesis (DCT in the primer), DCT at 3′-end 18 mer: immediate chain terminator; also recorded: termination
HIV-1 RT [4]; 30 nM RT
  Inhibition of (−) strand DNA synthesis (DCT in the primer), DCT at 3′-end 18 mer: immediate chain terminator; also recorded: termination
HIV-1 RT [4]
  Delayed chain termination (accumulation of n+3 products): clearly induced a delayed chain termination
[2]; [7]
  EC50: > 100 µM

## CCN(CC)c1nc2c(N)ncnc2n1[C@H]1C[C@H](O)[C@@H](CO)O1 [2c, 8-Diethylamino-2'-deoxyadenosine]
[1]
  CC50: > 100 µM
[2]; [7]
  EC50: > 100 µM

## Nc1ncnc2c1nc(N1CCCC1)n2[C@H]1C[C@H](O)[C@@H](CO)O1 [2d, 8-Pyrrolidin-2'-deoxyadenosine]
[1]
  CC50: > 100 µM
[2]; [7]
  EC50: > 100 µM

## Nc1ncnc2c1nc(N1CCCCC1)n2[C@H]1C[C@H](O)[C@@H](CO)O1 [2e, 8-Piperidin-2'-deoxyadenosine]
[1]
  CC50: > 100 µM
[2]; [7]
  EC50: > 100 µM

## CC(C)Nc1nc2c(N)ncnc2n1[C@H]1C[C@H](O)[C@@H](CO)O1 [2f, 8-iPropyl-amino-2'-deoxyadenosine]
HIV-1 RT [3]
  Effect on primer extension pattern / enzyme pausing in (+) strand DNA synthesis: enzyme pausing is obvious at positions n+1 and mainly n+2
[1]
  CC50: 81 µM
CEM-SS cells
  CC50: 81.3 ± 6.1 µM
HIV-1 RT [4]
  Delayed chain termination (accumulation of n+3 products): clearly induced a delayed chain termination
[2]; [7]
  EC50: 14 µM
[2]; listed as 8-iPr-N-dA
  EC50: moderate anti-HIV-1 activity
[2]; read-out: EC50
  EC50: 14.2 ± 1.9 µM

## CC(C)CNc1nc2c(N)ncnc2n1[C@H]1C[C@H](O)[C@@H](CO)O1 [2g, 8-iButyl-amino-2'-deoxyadenosine]
HIV-1 RT [3]
  Effect on primer extension pattern / enzyme pausing in (+) strand DNA synthesis: does not affect this pattern
[1]
  CC50: > 100 µM
HIV-1 RT [5]
  Inhibition of (−) strand DNA synthesis (DCT in the primer), DCT at penultimate position 19 mer: same pattern as the unmodified primer
HIV-1 RT [4]
  Delayed chain termination (accumulation of n+3 products): did not impact
[2]; [7]
  EC50: > 100 µM

## CSc1nc2c(N)ncnc2n1[C@H]1C[C@H](O)[C@@H](CO)O1 [compound 3, 8-Methylthio-2′-deoxyadenosine]
HIV-1 RT [6]
  Delayed chain termination with DNA rather than RNA as template: did not act as a delayed chain terminator
HIV-1 RT [3]
  Effect on primer extension pattern / enzyme pausing in (+) strand DNA synthesis: enzyme pausing is obvious at positions n+1 and mainly n+2
[1]
  CC50: > 100 µM
HIV-1 RT [4]
  Delayed chain termination (accumulation of n+3 products): clearly induced a delayed chain termination
[2]; [7]
  EC50: > 100 µM

## NC(=O)c1nc2c(N)ncnc2n1[C@H]1C[C@H](O)[C@@H](CO)O1 [compound 7, 8-Carbamoyl-2′-deoxyadenosine]
[1]
  CC50: > 100 µM
[2]; [7]
  EC50: > 100 µM

## C=Cc1nc2c(N)ncnc2n1[C@H]1C[C@H](O)[C@@H](CO)O1 [compound 8, 8-Vinyl-2′-deoxyadenosine]
HIV-1 RT [3]
  Effect on primer extension pattern / enzyme pausing in (+) strand DNA synthesis: enzyme pausing is obvious at positions n+1 and mainly n+2
[1]
  CC50: > 100 µM
[2]; [7]
  EC50: > 100 µM

## CCc1nc2c(N)ncnc2n1[C@H]1C[C@H](O)[C@@H](CO)O1 [compound 9, 8-Ethyl-2′-deoxyadenosine]
HIV-1 RT [3]
  Effect on primer extension pattern / enzyme pausing in (+) strand DNA synthesis: enzyme pausing is obvious at positions n+1 and mainly n+2
[1]
  CC50: > 100 µM
[2]; [7]
  EC50: > 100 µM
